In patent US12528786B2, “Plasma kallikrein inhibitors” (Merck Sharp & Dohme LLC, priority 2020, dated 2026):

Target: T1, Human plasma kallikrein (Homo sapiens, UniProt P03952)
T1 construct: yields a heavy chain (371 amino acids) and a light chain (248 amino acids); purchased Enzyme Research Laboratories
Test: Kallikrein Assay (fluorogenic substrate hydrolysis, AFC release)
Assay type: biochemical
Details: purified Human plasma kallikrein 0.5 nM; substrate Acetyl-K—P—R-AFC 100 mM; 50 mM HEPES pH 7.4
Procedure: The effectiveness of a compound of the present invention as an inhibitor of Kallikrein can be determined using a relevant purified serine protease, and an appropriate synthetic substrate. The rate of hydrolysis of the chromogenic or fluorogenic substrate by the relevant serine protease was measured both in the absence and presence of compounds of the present invention. Assays were conducted at room temperature or at 37° C. […] A decrease in the rate of fluorescence change in the presence of inhibitor is indicative of enzyme inhibition. Such methods are known to one skilled in the art. The results of this assay are expressed as the half-maximal inhibitory concentrations (IC50), or the inhibitory constant, Ki.
Kallikrein determinations were made in 50 mM HEPES buffer at pH 7.4 containing 150 mM NaCl, 5 mM CaCl2), and 0.1% PEG 8000 (polyethylene glycol; Fisher Scientific). Determinations were made using purified Human plasma kallikrein at a final concentration of 0.5 nM (Enzyme Research Laboratories) and the synthetic substrate, Acetyl-K—P—R-AFC (Sigma #C6608) at a concentration of […].
Activity assays were performed by diluting a stock solution of substrate at least tenfold to a final concentration ≤0.2 Km into a solution containing enzyme or enzyme equilibrated with inhibitor. Times required to achieve equilibration between enzyme and inhibitor were determined in control experiments. The reactions were performed under linear progress curve conditions and fluorescence increase measured at 405 Ex/510 Em nm. Values were converted to percent inhibition of the control reaction (after subtracting 100% Inhibition value). IC50 was determined by inflection point from a four parameter logistic curve fit. Ki was calculated using the Cheng Prusoff equation, Ki=IC50/(1+([S]/Km)).

T1 sequence (P03952 391-638 limits assumed): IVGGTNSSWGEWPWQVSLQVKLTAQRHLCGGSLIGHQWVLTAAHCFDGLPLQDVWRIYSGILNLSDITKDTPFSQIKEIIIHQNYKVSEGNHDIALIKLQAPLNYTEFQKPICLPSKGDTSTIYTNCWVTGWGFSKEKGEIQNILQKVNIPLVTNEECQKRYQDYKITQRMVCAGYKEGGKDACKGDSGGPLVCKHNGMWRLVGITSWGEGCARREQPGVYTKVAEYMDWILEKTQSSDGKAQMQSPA
T1 sequence (P03952 20-390 partner limits assumed): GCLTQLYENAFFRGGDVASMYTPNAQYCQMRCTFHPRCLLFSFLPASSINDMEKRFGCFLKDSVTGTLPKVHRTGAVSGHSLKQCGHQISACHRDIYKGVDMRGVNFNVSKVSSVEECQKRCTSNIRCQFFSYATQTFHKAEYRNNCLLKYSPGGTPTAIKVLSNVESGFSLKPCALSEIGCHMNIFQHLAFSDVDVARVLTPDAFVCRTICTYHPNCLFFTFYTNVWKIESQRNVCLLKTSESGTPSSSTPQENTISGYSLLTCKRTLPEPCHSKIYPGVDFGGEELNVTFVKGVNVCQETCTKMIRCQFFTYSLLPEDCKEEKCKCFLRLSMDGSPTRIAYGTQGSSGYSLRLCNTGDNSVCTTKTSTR

Row | Structure (SMILES) | IC50
1 | Cc1cc(N2C[C@H]3C[C@H]3C2=O)cnc1C(C)n1cc(C(=O)N[C@H]2C[C@@H](c3cc(Cl)ccc3C#N)C2)cn1 (single isomer, unassigned) [Example 24, N-((cis)-3-(5-chloro-2-cyanophenyl)cyclobutyl)-1-((R or S)-1-(3-methyl-5-((1R,5S)-2-oxo-3-azabicyclo[3.1.0]hexan-3-yl)pyridin-2-yl)ethyl)-1H-pyrazole-4-carboxamide] | 5.1 nM
2 | Cc1cc(N2C[C@H]3C[C@H]3C2=O)cnc1C(C)n1cc(C(=O)N[C@H]2C[C@@H](c3cc(Cl)ccc3C#N)C2)cn1 (single isomer, unassigned) [Example 25, N-((cis)-3-(5-chloro-2-cyanophenyl)cyclobutyl)-1-((S or R)-1-(3-methyl-5-((1R,5S)-2-oxo-3-azabicyclo[3.1.0]hexan-3-yl)pyridin-2-yl)ethyl)-1H-pyrazole-4-carboxamide] | 25.3 nM
3 | CC(c1ncc(N2C[C@H]3C[C@H]3C2=O)cc1F)n1cc(C(=O)N[C@H]2C[C@@H](c3cc(Cl)ccc3C#N)C2)cn1 (single isomer, unassigned) [Example 26, N-((cis)-3-(5-chloro-2-cyanophenyl)cyclobutyl)-1-((R or S)-1-(3-fluoro-5-((1R,5S)-2-oxo-3-azabicyclo[3.1.0]hexan-3-yl)pyridin-2-yl)ethyl)-1H-pyrazole-4-carboxamide] | 3.7 nM
4 | CC(c1ncc(N2C[C@H]3C[C@H]3C2=O)cc1F)n1cc(C(=O)N[C@H]2C[C@@H](c3cc(Cl)ccc3C#N)C2)cn1 (single isomer, unassigned) [Example 27, N-((cis)-3-(5-chloro-2-cyanophenyl)cyclobutyl)-1-((S or R)-1-(3-fluoro-5-((1R,5S)-2-oxo-3-azabicyclo[3.1.0]hexan-3-yl)pyridin-2-yl)ethyl)-1H-pyrazole-4-carboxamide] | 18.6 nM
5 | Cc1c(C(C)n2cc(C(=O)N[C@H]3C[C@@H](c4cc(Cl)ccc4C#N)C3)cn2)cnc(N2C[C@H]3C[C@H]3C2=O)c1F (single isomer, unassigned) [Example 28, N-((cis)-3-(5-chloro-2-cyanophenyl)cyclobutyl)-1-((R or S)-1-(5-fluoro-4-methyl-6-((1R,5S)-2-oxo-3-azabicyclo[3.1.0]hexan-3-yl)pyridin-3-yl)ethyl)-1H-pyrazole-4-carboxamide] | 0.2 nM
6 | Cc1c(C(C)n2cc(C(=O)N[C@H]3C[C@@H](c4cc(Cl)ccc4C#N)C3)cn2)cnc(N2C[C@H]3C[C@H]3C2=O)c1F (single isomer, unassigned) [Example 29, N-((cis)-3-(5-chloro-2-cyanophenyl)cyclobutyl)-1-((S or R)-1-(5-fluoro-4-methyl-6-((1R,5S)-2-oxo-3-azabicyclo[3.1.0]hexan-3-yl)pyridin-3-yl)ethyl)-1H-pyrazole-4-carboxamide] | 1.6 nM
7 | Cc1cc(C(C)n2cc(C(=O)N[C@H]3C[C@@H](c4cc(Cl)ccc4C#N)C3)cn2)nnc1N1C[C@H]2C[C@H]2C1=O (single isomer, unassigned) [Example 30, N-((cis)-3-(5-chloro-2-cyanophenyl)cyclobutyl)-1-((R or S)-1-(5-methyl-6-((1R,5S)-2-oxo-3-azabicyclo[3.1.0]hexan-3-yl)pyridazin-3-yl)ethyl)-1H-pyrazole-4-carboxamide] | 2.4 nM
8 | Cc1cc(C(C)n2cc(C(=O)N[C@H]3C[C@@H](c4cc(Cl)ccc4C#N)C3)cn2)nnc1N1C[C@H]2C[C@H]2C1=O (single isomer, unassigned) [Example 31, N-((cis)-3-(5-chloro-2-cyanophenyl)cyclobutyl)-1-((S or R)-1-(5-methyl-6-((1R,5S)-2-oxo-3-azabicyclo[3.1.0]hexan-3-yl)pyridazin-3-yl)ethyl)-1H-pyrazole-4-carboxamide] | 7.3 nM

More lines, now with the values ahead:

Row | IC50 | Structure (SMILES)
9 | 11.1 nM | Cc1ccnc([C@H]2C[C@@H](NC(=O)c3cnn(C(C)c4cnc(N5C[C@H]6C[C@H]6C5=O)cc4C)c3)C2)c1 (single isomer, unassigned) [Example 32, 1-((R or S)-1-(4-methyl-6-((1R,5S)-2-oxo-3-azabicyclo[3.1.0]hexan-3-yl)pyridin-3-yl)ethyl)-N-((cis)-3-(4-methylpyridin-2-yl)cyclobutyl)-1H-pyrazole-4-carboxamide]
10 | 84.4 nM | Cc1ccnc([C@H]2C[C@@H](NC(=O)c3cnn(C(C)c4cnc(N5C[C@H]6C[C@H]6C5=O)cc4C)c3)C2)c1 (single isomer, unassigned) [Example 33, 1-((S or R)-1-(4-methyl-6-((1R,5S)-2-oxo-3-azabicyclo[3.1.0]hexan-3-yl)pyridin-3-yl)ethyl)-N-((cis)-3-(4-methylpyridin-2-yl)cyclobutyl)-1H-pyrazole-4-carboxamide]
11 | 5.1 nM | Cc1cc(N2C[C@H]3C[C@H]3C2=O)ncc1C(C)n1cc(C(=O)N[C@H]2C[C@@H](c3cc(F)ccc3C#N)C2)cn1 (single isomer, unassigned) [Example 34, N-((cis)-3-(2-cyano-5-fluorophenyl)cyclobutyl)-1-((R or S)-1-(4-methyl-6-((1R,5S)-2-oxo-3-azabicyclo[3.1.0]hexan-3-yl)pyridin-3-yl)ethyl)-1H-pyrazole-4-carboxamide]
12 | 102 nM | Cc1cc(N2C[C@H]3C[C@H]3C2=O)ncc1C(C)n1cc(C(=O)N[C@H]2C[C@@H](c3cc(F)ccc3C#N)C2)cn1 (single isomer, unassigned) [Example 35, N-((cis)-3-(2-cyano-5-fluorophenyl)cyclobutyl)-1-((S or R)-1-(4-methyl-6-((1R,5S)-2-oxo-3-azabicyclo[3.1.0]hexan-3-yl)pyridin-3-yl)ethyl)-1H-pyrazole-4-carboxamide]
13 | 1.1 nM | Cc1ccc(C#N)c([C@H]2C[C@@H](NC(=O)c3cnn(C(C)c4cnc(N5C[C@H]6C[C@H]6C5=O)cc4C)c3)C2)c1 (single isomer, unassigned) [Example 36, N-((cis)-3-(2-cyano-5-methylphenyl)cyclobutyl)-1-((R or S)-1-(4-methyl-6-((1R,5S)-2-oxo-3-azabicyclo[3.1.0]hexan-3-yl)pyridin-3-yl)ethyl)-1H-pyrazole-4-carboxamide]
14 | 0.3 nM | Cc1c(C(C)n2cc(C(=O)N[C@H]3C[C@@H](c4cc(Cl)ccc4C#N)C3)cn2)cnc(N2C[C@H]3C[C@H]3C2=O)c1C (single isomer, unassigned) [Example 39, N-((cis)-3-(5-chloro-2-cyanophenyl)cyclobutyl)-1-((R or S)-1-(4,5-dimethyl-6-((1R,5S)-2-oxo-3-azabicyclo[3.1.0]hexan-3-yl)pyridin-3-yl)ethyl)-1H-pyrazole-4-carboxamide]
15 | 0.7 nM | Cc1c(C(C)n2cc(C(=O)N[C@H]3C[C@@H](c4cc(Cl)ccc4C#N)C3)cn2)cnc(N2C[C@H]3C[C@H]3C2=O)c1C (single isomer, unassigned) [Example 40, N-((cis)-3-(5-chloro-2-cyanophenyl)cyclobutyl)-1-((S or R)-1-(4,5-dimethyl-6-((1R,5S)-2-oxo-3-azabicyclo[3.1.0]hexan-3-yl)pyridin-3-yl)ethyl)-1H-pyrazole-4-carboxamide]
16 | 15.8 nM | Cc1c(C(C)n2cc(C(=O)N[C@H]3C[C@@H](c4cc(Cl)ccc4C#N)C3)cn2)nnc(N2C[C@H]3C[C@H]3C2=O)c1C (single isomer, unassigned) [Example 41, N-((cis)-3-(5-chloro-2-cyanophenyl)cyclobutyl)-1-((R or S)-1-(4,5-dimethyl-6-((1R,5S)-2-oxo-3-azabicyclo[3.1.0]hexan-3-yl)pyridazin-3-yl)ethyl)-1H-pyrazole-4-carboxamide]
